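Where inhibition never reached the appropriate level, the endpoint shown equals the highest concentration tested. Otherwise, values were interpolated linearly from a five-concentration, 48-hour dose response in 96-well plates. The concentration for 50% growth inhibition is given as GI50. The concentration for full growth arrest is given as TGI.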

Some test systems named below: OVCAR-4 ovarian; A498 renal; OVCAR-8 ovarian; COLO 205 colon; MOLT-4 leukemia; MDA-MB-231 breast; OVCAR-3 ovarian; SW-620 colon; ACHN renal; IGROV1 ovarian.
Holding throughout (assay): growth of human tumour cells (NCI), 48 h

In the case of `C[C@@H]1CN2[C@H]3[C@@H]1CC[C@]31CCC(=O)O[C@]1(C)[C@@H]1CC[C@H]3CCC=C3[C@@H]12`, the GI50 in the experiment with OVCAR-4 ovarian, in the experiment with A498 renal, with OVCAR-8 ovarian, with COLO 205 colon, in the experiment with MOLT-4 leukemia and in the experiment with MDA-MB-231 breast was above 70 µM throughout. For the same compound, the GI50 with OVCAR-3 ovarian, in the experiment with SW-620 colon, in the experiment with ACHN renal and in the experiment on IGROV1 ovarian was above 70 µM in each case. Moreover, the TGI in the experiment with OVCAR-4 ovarian, in the experiment with A498 renal, with OVCAR-8 ovarian, with COLO 205 colon, in the experiment on MOLT-4 leukemia and in the experiment with MDA-MB-231 breast was above 70 µM in each case. The TGI in the experiment on OVCAR-3 ovarian, with SW-620 colon, in the experiment with ACHN renal and in the experiment on IGROV1 ovarian was above 70 µM in each case.

With `CCN(CC)c1ccc2nc3c4ccccc4c(=NC(=O)c4ccccc4-c4c5ccc(N(CC)CC)cc5[o+]c5cc(N(CC)CC)ccc45)cc-3oc2c1`, the GI50 in the experiment with OVCAR-4 ovarian was 1.25 µM; in the experiment with A498 renal, 6.15 µM; in the experiment on OVCAR-8 ovarian, 2.23 µM; in the experiment on COLO 205 colon it was 1.59 µM; with MOLT-4 leukemia, 1.81 µM; in the experiment on MDA-MB-231 breast, 1.99 µM. Further, the GI50 with OVCAR-3 ovarian was 0.85 µM; with SW-620 colon it was 2.54 µM; in the experiment with ACHN renal, 3.97 µM; in the experiment on IGROV1 ovarian, 2.41 µM. The TGI in the experiment on OVCAR-4 ovarian is 2.67 µM; with A498 renal, 23.5 µM; with OVCAR-8 ovarian it was 12.2 µM; in the experiment with COLO 205 colon it was 3.83 µM; in the experiment on MOLT-4 leukemia, above 100 µM; in the experiment with MDA-MB-231 breast, 8.91 µM. Moreover, the TGI in the experiment with OVCAR-3 ovarian is 6.26 µM; with SW-620 colon it was above 22.5 µM; in the experiment on ACHN renal it was 13.7 µM; in the experiment with IGROV1 ovarian, 7.49 µM.

As to `Cc1cc2nc3c4ccccc4n(CCN(C)C)c3nc2cc1C`, the GI50 in the experiment with OVCAR-4 ovarian was 2.55 µM; in the experiment with A498 renal, 1.43 µM; with OVCAR-8 ovarian it was 1.16 µM; in the experiment on COLO 205 colon it was 1.29 µM; in the experiment on MOLT-4 leukemia, 0.555 µM; in the experiment on MDA-MB-231 breast it was 1.76 µM. Further, the GI50 with OVCAR-3 ovarian was 1.91 µM; with SW-620 colon, 0.54 µM; in the experiment on ACHN renal it was 0.555 µM; in the experiment on IGROV1 ovarian, 1.28 µM. Besides, the TGI in the experiment on OVCAR-4 ovarian is 8.94 µM; in the experiment on A498 renal, 2.86 µM; with OVCAR-8 ovarian, 12.4 µM; in the experiment with COLO 205 colon, 4.49 µM; with MOLT-4 leukemia, 9.9 µM; in the experiment on MDA-MB-231 breast, 9.91 µM. The TGI is 7.28 µM with OVCAR-3 ovarian, 9.59 µM in the experiment with SW-620 colon, 11.3 µM in the experiment on ACHN renal and 10.2 µM in the experiment on IGROV1 ovarian.

For `N#CSCC(=O)c1ccc(Cl)cc1`, the GI50 in the experiment on OVCAR-4 ovarian was 12.4 µM; in the experiment with A498 renal, 5.59 µM; in the experiment on OVCAR-8 ovarian, 4.78 µM; with COLO 205 colon it was 2.65 µM; in the experiment on MOLT-4 leukemia it was 1.03 µM; in the experiment on MDA-MB-231 breast it was 3.57 µM. For the same compound, the GI50 in the experiment with OVCAR-3 ovarian is 2.33 µM; in the experiment with SW-620 colon, 2.13 µM; in the experiment with ACHN renal, 5.55 µM; with IGROV1 ovarian, 1.33 µM. In addition, the TGI was above 100 µM with OVCAR-4 ovarian; 20.9 µM with A498 renal; 22.4 µM with OVCAR-8 ovarian; 7.94 µM in the experiment with COLO 205 colon; above 33.1 µM in the experiment on MOLT-4 leukemia; 12.4 µM in the experiment on MDA-MB-231 breast. Moreover, the TGI turned out to be 5.26 µM with OVCAR-3 ovarian, 12.2 µM in the experiment with SW-620 colon, 19.9 µM with ACHN renal and 6.6 µM in the experiment on IGROV1 ovarian.

In the case of `C/C(=N\Nc1cccc(Cl)n1)c1ccccn1`, the GI50 with OVCAR-4 ovarian is 0.439 µM; in the experiment with A498 renal it was 1.41 µM; with OVCAR-8 ovarian, 0.51 µM; with COLO 205 colon it was 0.38 µM; in the experiment on MOLT-4 leukemia, 0.407 µM; in the experiment on MDA-MB-231 breast it was 0.584 µM. Moreover, the GI50 was 0.379 µM in the experiment with OVCAR-3 ovarian, 0.614 µM with SW-620 colon, 0.556 µM in the experiment with ACHN renal and 0.533 µM in the experiment on IGROV1 ovarian. The TGI was above 54.7 µM in the experiment on OVCAR-4 ovarian; 4.87 µM with A498 renal; above 100 µM with OVCAR-8 ovarian; above 21.5 µM in the experiment on COLO 205 colon; above 100 µM in the experiment on MOLT-4 leukemia; above 100 µM with MDA-MB-231 breast. For the same compound, the TGI is 13.3 µM with OVCAR-3 ovarian, above 100 µM in the experiment on SW-620 colon, 18.4 µM in the experiment on ACHN renal and above 59.1 µM with IGROV1 ovarian.

For the compound `Nc1cccc2nsnc12`, the TGI with OVCAR-4 ovarian was above 100 µM; with A498 renal it was above 100 µM; in the experiment with OVCAR-8 ovarian it was above 100 µM; with COLO 205 colon it was above 100 µM; with MOLT-4 leukemia it was above 54.5 µM; with MDA-MB-231 breast, above 100 µM. Besides, the TGI in the experiment with OVCAR-3 ovarian, with SW-620 colon, in the experiment on ACHN renal and with IGROV1 ovarian was above 100 µM in each case.

Take `N#CC(C#N)=Cc1ccc(-c2ccc(-c3nc4ccccc4o3)cc2)o1`: the GI50 with OVCAR-4 ovarian is above 100 µM; in the experiment with A498 renal, 24.9 µM; with OVCAR-8 ovarian, 29.9 µM; with COLO 205 colon it was 40 µM; in the experiment on MOLT-4 leukemia it was 12.1 µM; with MDA-MB-231 breast it was 19.9 µM. For the same compound, the GI50 in the experiment on OVCAR-3 ovarian was 66.7 µM; with SW-620 colon it was 20.5 µM; with ACHN renal, 50.8 µM; in the experiment with IGROV1 ovarian, 65.8 µM. Moreover, the TGI with OVCAR-4 ovarian is above 100 µM; in the experiment with A498 renal, 70 µM; in the experiment on OVCAR-8 ovarian, above 100 µM; in the experiment on COLO 205 colon, above 100 µM; in the experiment on MOLT-4 leukemia it was above 100 µM; in the experiment on MDA-MB-231 breast, 69.5 µM. The TGI in the experiment with OVCAR-3 ovarian, in the experiment with SW-620 colon, in the experiment on ACHN renal and in the experiment with IGROV1 ovarian was above 100 µM throughout.

On to `CC(=O)OCC(=O)C1(O)C(C)CC2C3C=C(C)C4=Cc5c(cnn5-c5ccccc5)CC4(C)C3C(O)CC21C` (stereo not given), for which the GI50 in the experiment with OVCAR-4 ovarian is 2.29 µM; in the experiment with A498 renal it was 1.4 µM; in the experiment on OVCAR-8 ovarian, 2.46 µM; in the experiment on COLO 205 colon, 1.72 µM; with MOLT-4 leukemia it was 0.753 µM; with MDA-MB-231 breast it was 1.85 µM. Besides, the GI50 in the experiment with OVCAR-3 ovarian was 1.67 µM; in the experiment on SW-620 colon, 1.7 µM; in the experiment with ACHN renal, 2.16 µM; in the experiment on IGROV1 ovarian it was 1.99 µM. Moreover, the TGI was 20 µM in the experiment on OVCAR-4 ovarian; 3.94 µM in the experiment on A498 renal; 25.5 µM with OVCAR-8 ovarian; 3.26 µM in the experiment with COLO 205 colon; above 22 µM in the experiment with MOLT-4 leukemia; 4.34 µM in the experiment on MDA-MB-231 breast. Moreover, the TGI in the experiment with OVCAR-3 ovarian was 3.96 µM; with SW-620 colon, 3.42 µM; with ACHN renal it was 9.03 µM; in the experiment on IGROV1 ovarian, 6.48 µM.
